Test [1] has as its system human SKM-1 acute myeloid leukemia cells. Description: SKM-1 antiproliferation cell-based assay (ATPlite). Conditions: Homo sapiens. The method, boiled down: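 Log-phase cells in RPMI 1640/15% FBS were seeded at 34722 cells/mL and exposed for 4 days to nine-concentration DMSO serial dilutions in triplicate. Viability was read as ATP luminescence (ATPlite 1step), and IC50 values came from variable-slope non-linear regression.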
Background: Cellular ATP, detected with luciferase, serves as a proxy for viable cell number.

Test [2] concerns the target T1, human BRD4 bromodomain II (Homo sapiens, UniProt O60885).
T1 construct: human BRD4 bromodomain II [based on Genbank NM_058243, residues 349-460]; host or cells: E. coli
Description: Bromodomain binding assay (AlphaScreen), BRD4 BDII. The method in brief:
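First, His6-tagged BRD4 bromodomain (BDI residues 44-170 or BDII residues 349-460) is incubated with compound for 30 min at room temperature. Next the biotinylated H4 peptide is added for 30 min, then donor and acceptor beads, with 60 min in the dark before AlphaScreen reading and IC50 fitting.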

Setting [3] is: SKM-1, 96 h, SKM-1 antiproliferation assay, 4 days, Table C2.
[4] abbreviates: AlphaScreen assay, Table C2, read-out: BRD4 BDII IC50.

Molecules are shown by their SMILES. Read-outs that look alike come from different tables or passages of the source.

As a reminder, the GI50 is the concentration at which growth is held to half of that of the control. Lower therefore signals greater sensitivity of the cells. In general, IC50 refers to the point on the concentration scale where inhibition reaches its midpoint.

As for `C[C@@H]1CN(c2cc(-c3cc(F)cc(-c4ccc(-n5ccn(C)c5=O)c(Cl)c4)c3O)cn(CCCO)c2=O)CCN1` [Example 630, (R)-5-(3′-chloro-5-fluoro-2-hydroxy-4′-(3-methyl-2-oxo-2,3-dihydro-IH-imidazol-1-yl)-[1,1′-biphenyl]-3-yl)-1-(3-hydroxypropyl)-3-(3-methylpiperazin-1-yl)pyridin-2(1H)-one], the 50% growth inhibitory concentration (GI50) in test [1] (setting [3]) was 30 to 300 nM. For the same molecule, the IC50 in test [2] (setting [4]) was 0.01 to 1 nM.
For `C[C@@H]1CN(c2cc(-c3cc(F)cc(-c4ccc(-n5ccn(C)c5=O)c(Cl)c4)c3O)cc3c2cnn3C)CCN1` [Example 580], in that order: 0.3 to 30 nM and 0.01 to 1 nM.
Consider `Cc1cc(-c2cc(C)nc(N3CCNCC3)c2)c(O)c(-c2ccc(N3CCN(C)C3=O)c(Cl)c2)c1` [Example 337, 1-(3-chloro-2′-hydroxy-5′-methyl-3′-(2-methyl-6-(piperazin-1-yl)pyridin-4-yl)-[1,1′-biphenyl]-4-yl)-3-methylimidazolidin-2-one], for which, in test [1] (setting [3]), the GI50 is 30 to 300 nM. The IC50 in test [2] (setting [4]) was 1 to 10 nM.
On to `C[C@@H]1CN(c2cc(-c3cc(F)cc(-c4ccc(-n5ccn(C)c5=O)c(Cl)c4)c3O)cc3nccnc23)CCN1` [Example 549, (R)-1-(3-chloro-5′-fluoro-2′-hydroxy-3′-(8-(3-methylpiperazin-1-yl)quinoxalin-6-yl)-[1,1′-biphenyl]-4-yl)-3-methyl-1H-imidazol-2(3H)-one], for which, in test [1] (setting [3]), the GI50 was 0.3 to 30 nM. The IC50 in test [2] (setting [4]) fell in the range of 1 to 10 nM.
For `Cn1ccn(-c2ccc(-c3cc(F)cc(-c4ccnc(N5CCN(CCO)CC5)c4)c3O)cc2Cl)c1=O` [Example 471, 1-(3-chloro-5′-fluoro-2′-hydroxy-3′-(2-(4-(2-hydroxyethyl)piperazin-1-yl)pyridin-4-yl)-[1,1′-biphenyl]-4-yl)-3-methyl-1H-imidazol-2(3H)-one], in that order: 0.3 to 30 nM and 0.01 to 1 nM.
For `CC1CN(c2cc(-c3cccc(-c4ccc(N5CCCC5=O)c(F)c4)c3O)ccn2)CC(C)N1` (centres unmarked) [Example 266, 1-(3′-(2-(3,5-dimethylpiperazin-1-yl)pyridin-4-yl)-3-fluoro-2′-hydroxy-[1,1′-biphenyl]-4-yl)pyrrolidin-2-one], in that order: 300 to 3000 nM and 1 to 10 nM.
For `Cc1cc(-c2ccnc(N3CCN[C@H](C)C3)c2)c(O)c(-c2ccc(-n3ccn(C)c3=O)c(F)c2)c1` [Example 546, (R)-1-(3-fluoro-2′-hydroxy-5′-methyl-3′-(2-(3-methylpiperazin-1-yl)pyridin-4-yl)-[1,1′-biphenyl]-4-yl)-3-methyl-1H-imidazol-2(3H)-one], in that order: 0.3 to 30 nM and 0.01 to 1 nM.
`Cc1cc(-c2ccc(-n3ccn(C)c3=O)c(Cl)c2)c(O)c(-c2cnnc(N3CCN(C(C)(C)C)CC3)c2)n1` [Example 1017, 1-(4-(2-(6-(4-(tert-butyl)piperazin-1-yl)pyridazin-4-yl)-3-hydroxy-6-methylpyridin-4-yl)-2-chlorophenyl)-3-methyl-1H-imidazol-2(3H)-one] showed a GI50 in test [1] (SKM-1, SKM-1 antiproliferation assay) of 30 to 300 nM. Also, in test [2] (BRD4 BDII AlphaScreen assay, read-out: BRD4 BD2 IC50), the IC50 lay within 1 to 10 nM.
Molecule `CC(=O)NC1CN(c2cc(-c3cc(F)cc(-c4ccc(-n5ccn(C)c5=O)c(Cl)c4)c3O)ccn2)CC12CC2` (centres unmarked) [Example 767, N-(5-(4-(3′-chloro-5-fluoro-2-hydroxy-4′-(3-methyl-1-oxo-2,3-dihydro-1H-imidazol-1-yl)-[1,1′-biphenyl]-3-yl)pyridin-2-yl)-5-azaspiro[2.4]heptan-7-yl)acetamide] returned a GI50 in test [1] (setting [3]) of 0.3 to 30 nM. The IC50 in test [2] (setting [4]) was in the range of 0.01 to 1 nM.
`COc1ncc(-c2cc(F)cc(-c3ccc(-n4ccn(C)c4=O)c(Cl)c3)c2O)cc1N1CC(C)(O)C1` [Example 834, 1-(3-chloro-5′-fluoro-2′-hydroxy-3′-(5-(3-hydroxy-3-methylazetidin-1-yl)-6-methoxypyridin-3-yl)-[1,1′-biphenyl]-4-yl)-3-methyl-1H-imidazol-2(3H)-one]: in test [1] (setting [3]), the GI50 fell in the range of 0.3 to 30 nM. The IC50 in test [2] (setting [4]) is 1 to 10 nM.
